“Also recorded” adds a separate entry of the source. Where a SMILES comes first, the peptide text is derived from it. Bridges are numbered along the chain shown (N, C = ends).
Tests used:
Ooceraea biroi ants = assay: Pharmacological immersion, age- and brood-controlled colonies: distance traveled (automated tracking); assay type: in vivo; details: for foraging activity / distance traveled vs control peptide: immersion in 1 mM, 5 h, n = 20 ants
From the text: Mature O. biroi inotocin peptide (CLITNCPRG) was synthesized and cyclized at The Rockefeller University Proteomics Resource Center, along with a scrambled version of the peptide (NRPCGLTCI) as a negative control with identical amino acid composition.
For the full experiment (Fig 3), we set up 20 experimental colonies of line B ants that were color painted as previously described. Each colony consisted of 16 ants in an airtight Petri dish with 5-cm diameter. Eight ants in each colony were 3 weeks old, and 8 ants in each colony were 20 weeks old. We added ten 3- to 4-day-old larvae to each of 10 colonies and 10 white (young) pupae to each of the remaining 10 colonies. Brood items often die soon after introduction to a colony, so we added 2 extra brood items per colony to ensure there were 8 alive at the start of the experiment. After the ants had settled for 3 days, we adjusted the number of brood items to 8 per colony, after which we performed the pharmacological treatments. The rationale of having a 1:2 larvae-to-workers ratio in this experiment was to assess the possible effect of increased inotocin levels on worker behavior without saturating the brood signal, as ant larvae regulate worker foraging behavior in a dose-dependent manner.
On the day of the experiment, colonies were not fed. To avoid disturbance to the colony as much as possible, half the colony was left untreated, and half was treated. The treatments consisted of immersing the ants in 1 mM solution of freshly dissolved inotocin or control peptide diluted in water and kept on ice. The immersion took place in 1.5-ml Eppendorf tubes that were gently tapped against the bench top for 7 consecutive minutes, after which the liquid was removed using a 1.5-ml transfer pipette. The remaining liquid was removed with a Kimwipe, and ants were transferred to their source colony. In each colony, we treated 2 ants per age category with inotocin and 2 ants per age category with the control peptide. Ants were allowed to recover for 1 hour after the treatment before the start of the video recordings.
Videos were recorded for 5 hours at 5 frames per second using Logitech C910 USB cameras. Individual ants were tracked using anTraX [85]. In short, ants were segmented using a background subtraction and fixed threshold procedure. Blobs in consecutive frames were threaded into sequences using the Horn–Schunk optical flow method and then classified as single ants or multiple ants based on blob size and linkage criteria. Single ant blob sequences were classified into their appropriate IDs as detailed in [85]. Ants that were detected as single blobs were deemed “active,” and their location was recorded (Fig 3B). The activity level of an ant was defined as the total distance traveled, and an activity time course was created for each ant by summing its activity in time bins of 15 minutes for the entire duration of the experiment. All ants in a colony were tracked. The activity across ants from a given condition from all experimental colonies was averaged in each time bin. The resulting curves were fitted with first- or second-order polynomials using nonlinear regression (least squares fit). The fitted curves were compared using extra sum-of-squares F-tests to select for the best fitted model and to compare between fitted curves, and statistical significance thresholds were adjusted for 2 comparisons within experiments using Bonferroni corrections (old inotocin versus old mock and young inotocin versus young mock). […]

[1] = test system: O. biroi inotocin receptor (itcR); assay: Calcium flux, inotocin receptor co-transfected with G proteins or empty vector; assay type: cell-based, Ooceraea biroi
Procedure: Human embryonic kidney 293T (HEK293T) cells were cultured in DMEM supplemented with 10% FBS at 37°C in a tissue culture incubator with a humidified atmosphere containing 5% CO2. Cells were plated in 10-cm dishes, and, when they reached 60% to 70% confluency, they were transfected with a pcDNA3.3 vector containing approximately 1 ng of inotocin receptor cDNA or an empty vector as a control using Lipofectamine 2000. Cells were transfected directly into poly-D-lysine–coated 384-well plates and incubated for 48 hours at 37°C. Subsequently, cells were incubated with FLIPR Calcium 4 Assay kit dye for 1 hour in the incubator. The fluorescence (excitation, 488 nm; emission, 530 nm) of the wells was recorded using a Flex Station II 384 (Molecular Devices, San Jose, California, USA), and a dose curve of inotocin (0 to 3 μM) was applied to the wells, in sextuplicate (see below for inotocin peptide synthesis). We calculated the EC50 values using Prism (GraphPad Software version 8) nonlinear regression, 4-parameter logistic curve fit. Dose curves were repeated at least 3 times on independently prepared samples and different days. Results were consistent across replicates, and example dose curves are shown in Fig 1C and S4A Fig. Control experiments are shown in S2–S5 Figs.
(C and D) Co-transfection with Gq alpha 16. (E and F) Co-transfection with Gq alpha with Gi alpha C term chimera. […]

[2] = test system: HEK293T cells transfected with an empty vector; assay: Calcium imaging (fura-2), empty vector; assay type: cell-based, human
Procedure: (§1) Experiments were conducted following Garrison J.L., et al 2012 [8] with modifications. Human embryonic kidney 293T cells (HEK293T) were cultured in DMEM and supplemented with 10% FBS at 37 °C in a cell incubator containing 5% CO^2. Cells were grown in 35 mm MatTek glass bottom dishes to a level of 60 – 70% confluency. Cells were transfected with a 1:1 ratio of PCDNA3.3 containing ~ 1μg of itcR cDNA (full-length isoform A or truncated isoform H) (See S1 Fig for isoforms) and pcDNA3-alpha 16 (encoding promiscuous G protein 16) using Lipofectamine 2000. Cells were incubated for 24 h at 37 °C and then transferred to 28 °C for another 16-24 h. For control experiments, empty vector was also transfected. On the day of the experiment, the cells were loaded with […] fura-2/AM (Invitrogen) for 25 min at 37 °C. Inotocin peptide diluted in Ringer’s solution was applied to the cells for 15 s with a peristaltic pump, and fluorescence at 510 nm was monitored (excitation at 340/380 nm) using a MetaFluor calcium imaging system with a Nikon Eclipse TE2000U microscope.

[3] = test system: O. biroi inotocin receptor ObiroiItr_A; assay: Calcium imaging (fura-2), full-length receptor isoform A with G protein 16; assay type: cell-based, Ooceraea biroi; details: ObiroiItr_A and G protein 16; fura-2, 510 nm, ex 340/380 nm; peptide for 15 s
Procedure: as §1

CC[C@H](C)[C@@H]1NC(=O)[C@H](CC(C)C)NC(=O)[C@@H](N)CSSC[C@@H](C(=O)N2CCC[C@H]2C(=O)N[C@@H](CCCNC(=N)N)C(=O)NCC(N)=O)NC(=O)[C@H](CC(N)=O)NC(=O)[C@H]([C@@H](C)O)NC1=O [Inotocin] (H-CLITNCPRG-NH2; disulfide 1-6; N-terminus and C-terminus assumed)
foraging activity / distance traveled vs control peptide (Ooceraea biroi ants; old ants, larvae present, p < 0.0002, Bonferroni corrected): forage more than old ants treated with a control peptide; also recorded: displayed increased foraging activity in the presence of larvae; also recorded: had higher average distance traveled than ants under any other experimental condition
foraging activity / distance traveled vs control peptide (Ooceraea biroi ants; old ants, pupae present, p = 0.998, p > 0.99, Bonferroni corrected): no difference in foraging activity was found; also recorded: no effect of inotocin treatment was observed
tendency to leave the nest (Ooceraea biroi ants; overall statement, contingent on age and social context): increases the tendency of ants to leave the nest
foraging activity / distance traveled vs control peptide (Ooceraea biroi ants; young ants, larvae present, p = 0.106, p = 0.109, Bonferroni corrected): No difference in foraging activity was detected; also recorded: no behavioral difference
foraging activity / distance traveled vs control peptide (Ooceraea biroi ants; young ants, pupae present, p < 0.0002, Bonferroni corrected): foraged more when treated with inotocin; also recorded: slightly increased their activity; also recorded: increased their average distance traveled compared to ants under any other experimental condition
calcium response ([1]; co-transfection with Gq alpha 16, Gq alpha with Gi alpha C term chimera, or Gq alpha with Go alpha C term chimera compared with empty vector): does not require co-transfection with a G-protein
calcium response ([1]; itcR co-transfected with empty vector (no G protein), 28°C or constantly 37°C): response in a dose dependent manner; also recorded: show calcium responses when stimulated with inotocin
calcium signal [2]: No calcium signal is detected
calcium signal [3]: Calcium signal is detected

Reference: publication PMC8244912, “An oxytocin/vasopressin-related neuropeptide modulates social foraging behavior in the clonal raider ant” (PLoS Biology, 2021)
